Data published in PubChem BioAssay AID248 (DTP/NCI, 2004).
Several values for one entry are separate records, joined by “and”; a condition that tells them apart may be missing. Equal values may be shown once. Toxic doses and inconclusive results are not listed. No stated cut-off is given here; in the data, active means T/C of 150% or more; inactive means T/C below 125%.

System: L1210 leukemia ip in BDF1 mice, survival T/C
Test: NCI In Vivo Anticancer Drug Screen. Data for tumor model L1210 Leukemia (intraperitoneal) in B6D2F1 (BDF1) mice
Conditions: endpoint: mean survival time, higher = longer survival
How it was run: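 Transplanted-tumor mice were given test agent; controls received vehicle only. Survival readings from the two groups were divided (treated over control).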

[1] = dose: 100.0 mg/kg/injection, schedule: Q04DX003 (ip), vehicle: saline
[2] = dose: 200.0 mg/kg/injection, schedule: Q04DX003 (ip), vehicle: saline
[3] = dose: 400.0 mg/kg/injection, schedule: Q04DX003 (ip), vehicle: saline
[4] = dose: 200.0 mg/kg/injection, schedule: Q01DX009 (ip), vehicle: Klucel (hydroxypropylcellulose) (HPC)
[5] = dose: 400.0 mg/kg/injection, schedule: Q01DX009 (ip), vehicle: Klucel (hydroxypropylcellulose) (HPC)
[6] = dose: 200.0 mg/kg/injection, schedule: Q04DX003 (ip), vehicle: saline with Tween-80
[7] = dose: 100.0 mg/kg/injection, schedule: Q04DX002 (ip), vehicle: Klucel (hydroxypropylcellulose) (HPC)
[8] = dose: 200.0 mg/kg/injection, schedule: Q04DX002 (ip), vehicle: Klucel (hydroxypropylcellulose) (HPC)
[9] = dose: 50.0 mg/kg/injection, schedule: Q01DX001 (ip), vehicle: carboxymethylcellulose (CMC)
[10] = dose: 100.0 mg/kg/injection, schedule: Q01DX001 (ip), vehicle: carboxymethylcellulose (CMC)
[11] = dose: 200.0 mg/kg/injection, schedule: Q01DX001 (ip), vehicle: carboxymethylcellulose (CMC)
[12] = dose: 400.0 mg/kg/injection, schedule: Q01DX001 (ip), vehicle: carboxymethylcellulose (CMC)
[13] = dose: 25.0 mg/kg/injection, schedule: Q01DX009 (ip), vehicle: Klucel (hydroxypropylcellulose) (HPC)
[14] = dose: 50.0 mg/kg/injection, schedule: Q01DX009 (ip), vehicle: Klucel (hydroxypropylcellulose) (HPC)
[15] = dose: 100.0 mg/kg/injection, schedule: Q01DX009 (ip), vehicle: Klucel (hydroxypropylcellulose) (HPC)

Measured: T/C

CN(C)c1cc(F)c(C=O)cc1[N+](=O)[O-]
inactive: dose: 100.0 mg/kg/injection, schedule: Q01DX009 (ip), vehicle: saline 100 % of control | [1] 113 % of control | dose: 200.0 mg/kg/injection, schedule: Q01DX009 (ip), vehicle: saline 105 % of control | [2] 105 % of control | dose: 400.0 mg/kg/injection, schedule: Q01DX009 (ip), vehicle: saline 100 % of control | [3] 98 % of control

CCCCCC(C)NCC(C)O (stereo not drawn)
inactive: dose: 75.0 mg/kg/injection, schedule: Q01DX001 (ip), vehicle: acid diluted with saline 100 % of control

CCCCCCCCCCCCSC(=O)Nc1ccc([N+](=O)[O-])cc1Cl
inactive: [4] 107 % of control | [5] 102 % of control

Brc1ccc(C[N+]23CN4CN(CN(C4)C2)C3)cc1
inactive: dose: 15.0 mg/kg/injection, schedule: Q01DX015 (ip), vehicle: saline 103 % of control | dose: 30.0 mg/kg/injection, schedule: Q01DX015 (ip), vehicle: saline 102 % of control | dose: 60.0 mg/kg/injection, schedule: Q01DX015 (ip), vehicle: saline 102 % of control | dose: 100.0 mg/kg/injection, schedule: Q01DX009 (ip), vehicle: saline with Tween-80 101 % of control | [1] 105 % of control | dose: 120.0 mg/kg/injection, schedule: Q01DX015 (ip), vehicle: saline 105 % of control | dose: 200.0 mg/kg/injection, schedule: Q01DX009 (ip), vehicle: saline with Tween-80 102 % of control | [2] 103 % of control | dose: 240.0 mg/kg/injection, schedule: Q01DX015 (ip), vehicle: saline 98 % of control | [3] 92 % of control

OCCN=Cc1ccccc1O.OCCN=Cc1ccccc1O.[Ni]
inactive: dose: 75.0 mg/kg/injection, schedule: Q01DX001 (ip), vehicle: other 103 % of control | dose: 150.0 mg/kg/injection, schedule: Q01DX001 (ip), vehicle: other 106 % of control

CNC(=O)NC1C(O)C(OC)OC2COC(c3ccccc3)OC21 (stereo not drawn)
inactive: dose: 100.0 mg/kg/injection, schedule: Q04DX003 (ip), vehicle: saline with Tween-80 92 % of control | [6] 92 % of control

CCCCCCCC(=O)[O][Pb]([CH2]C)([CH2]C)[CH2]C
inactive: dose: 12.5 mg/kg/injection, schedule: Q04DX002 (ip), vehicle: DMSO 114 % of control

NC(=O)c1cc(Cl)nc(Cl)n1
inactive: dose: 25.0 mg/kg/injection, schedule: Q01DX Z (ip), vehicle: methylcellulose (MC) 98 % of control | dose: 50.0 mg/kg/injection, schedule: Q01DX Z (ip), vehicle: methylcellulose (MC) 96 % of control

O=C(O)c1cc([N+](=O)[O-])ccc1Nc1ccccc1
inactive: [6] 95 % of control

O=C(COc1ccc(Cl)cc1Cl)Nc1ccc(-c2ccc(NC(=O)COc3ccc(Cl)cc3Cl)cc2)cc1
inactive: dose: 50.0 mg/kg/injection, schedule: Q04DX002 (ip), vehicle: Klucel (hydroxypropylcellulose) (HPC) 89 % of control | [7] 89 % of control | [8] 100 % of control

OCCNc1ccccc1
inactive: dose: 100.0 mg/kg/injection, schedule: Q01DX001 (ip), vehicle: saline 93 % of control | dose: 200.0 mg/kg/injection, schedule: Q01DX001 (ip), vehicle: saline 101 % of control

O=C(O)/C=C/C(=O)Nc1cccc(Oc2ccc([N+](=O)[O-])cc2[N+](=O)[O-])c1
inactive: [1] 106 % of control | [2] 111 % of control | [3] 104 % of control

COCCCNP1(=O)OCC(C)([N+](=O)[O-])CO1 (stereo not drawn)
inactive: [9] 100 % of control | [10] 94 % of control | [11] 94 % of control | [12] 92 % of control

CSC1=NCCS1
inactive: [13] 97 % of control | [14] 102 % of control | [15] 105 % of control | dose: 100.0 mg/kg/injection, schedule: Q01DX009 (ip), vehicle: carboxymethylcellulose (CMC) 111 % of control | dose: 200.0 mg/kg/injection, schedule: Q01DX009 (ip), vehicle: carboxymethylcellulose (CMC) 101 % of control

O=C(CI)Nc1ccc(Br)cc1
inactive: dose: 6.25 mg/kg/injection, schedule: Q01DX009 (ip), vehicle: Klucel (hydroxypropylcellulose) (HPC) 86 % of control | dose: 12.5 mg/kg/injection, schedule: Q01DX009 (ip), vehicle: Klucel (hydroxypropylcellulose) (HPC) 91 % of control | [13] 86 % of control | dose: 35.0 mg/kg/injection, schedule: Q01DX009 (ip), vehicle: Klucel (hydroxypropylcellulose) (HPC) 98 % of control

Cc1cc(C(=O)O)c2c([nH]1)c(C)cc1nc3ccccc3c12
inactive: [9] 101 % of control | [10] 101 % of control | [11] 108 % of control | [12] 95 % of control

CC1=CC(=O)C2=C(C)C[C@H](O)[C@@H]3[C@H](OC(=O)[C@H]3C)[C@@H]12
inactive: dose: 100.0 mg/kg/injection, schedule: Q04DX002 (ip), vehicle: saline 100 % of control | dose: 200.0 mg/kg/injection, schedule: Q04DX002 (ip), vehicle: saline 89 % of control | dose: 400.0 mg/kg/injection, schedule: Q04DX002 (ip), vehicle: saline 95 % of control

Cc1nc(N)[nH]c(=O)c1CCCCC#N
inactive: dose: 100.0 mg/kg/injection, schedule: Q01DX001 (ip), vehicle: Klucel (hydroxypropylcellulose) (HPC) 100 % of control | [15] 93 % of control and 106 % of control | [7] 100 % of control and 102 % of control | dose: 100.0 mg/kg/injection, schedule: Q04DX003 (ip), vehicle: Klucel (hydroxypropylcellulose) (HPC) 97 % of control | dose: 200.0 mg/kg/injection, schedule: Q01DX001 (ip), vehicle: Klucel (hydroxypropylcellulose) (HPC) 100 % of control | [4] 95 % of control and 100 % of control | [8] 102 % of control and 107 % of control | dose: 200.0 mg/kg/injection, schedule: Q04DX003 (ip), vehicle: Klucel (hydroxypropylcellulose) (HPC) 111 % of control | dose: 400.0 mg/kg/injection, schedule: Q01DX001 (ip), vehicle: Klucel (hydroxypropylcellulose) (HPC) 100 % of control | [5] 117 % of control | dose: 400.0 mg/kg/injection, schedule: Q04DX002 (ip), vehicle: Klucel (hydroxypropylcellulose) (HPC) 100 % of control and 104 % of control | dose: 400.0 mg/kg/injection, schedule: Q04DX003 (ip), vehicle: Klucel (hydroxypropylcellulose) (HPC) 102 % of control

C[n+]1cccc2cccc(O)c21
inactive: [7] 115 % of control

COC(C)CSP(SCC(C)OC)SCC(C)OC (stereo not drawn)
inactive: [13] 96 % of control | [14] 99 % of control | [15] 99 % of control

CSc1ccc(NC(=O)Nc2ccc(Cl)cc2[N+](=O)[O-])cc1
inactive: [15] 97 % of control | [4] 91 % of control
